Assay results reported in the supplement of paper PMC7661543.
± gives the standard deviation of the averaged measurements.

Legend:
Assay in all cases: relative cell number vs DMSO control (72 h) (% of DMSO); higher = less growth inhibition (more cells)
Settings in all cases: sgRNA knockout: sgNT
[1] = system: HCC-38
Experimental: (§1)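 QMAP-Seq: a pool of 5 breast cancer cell lines (ZR-75-1, SKBR3, HCC-38, MDA-MB-231, BT-20), each carrying 12 doxycycline-inducible Cas9 sgRNA perturbations (11 knockouts plus non-targeting sgNT), was treated with compounds for 72 h at four 10-fold doses (10 nM-10 uM or 1 nM-1 uM range). Barcodes were amplified and sequenced, and cell number was interpolated from 293T spike-in standard curves. The result is expressed as % of the median of DMSO wells. Two biological replicates.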

[2] = system: BT-20
Experimental: as §1

[3] = system: MDA-MB-231
Experimental: as §1

[4] = system: SKBR3
Experimental: as §1

[5] = system: ZR-75-1
Experimental: as §1

How did the relative cell number ([1]; 10 nM) turn out when `Cc1ccc(Nc2nccc(N(C)c3ccc4c(C)n(C)nc4c3)n2)cc1S(N)(=O)=O` [Pazopanib] was run?
Its relative cell number is 95.4 ± 1.7.

What about the relative cell number ([1]; 100 nM) of the same molecule?
Its relative cell number is 95.2 ± 1.4.

What about the relative cell number ([1]; 1000 nM) of the same molecule?
Its relative cell number is 95 ± 15.

What about the relative cell number ([1]; 10000 nM) of the same molecule?
The relative cell number was 56.8 ± 1.5.

And the relative cell number ([2]; 10 nM)?
Its relative cell number is 102 ± 15.

And the relative cell number ([2]; 100 nM)?
Its relative cell number is 86.8 ± 3.6.

What about the relative cell number ([2]; 1000 nM) of the same molecule?
The relative cell number was 110 ± 3.6.

What about the relative cell number ([2]; 10000 nM) of the same molecule?
Its relative cell number is 73.8 ± 16.

And the relative cell number ([3]; 10 nM)?
The relative cell number was 97 ± 39.

And the relative cell number ([3]; 100 nM)?
The relative cell number was 90.5 ± 16.

What about the relative cell number ([3]; 1000 nM) of the same molecule?
The relative cell number was 88.68 ± 0.85.

And the relative cell number ([3]; 10000 nM)?
Its relative cell number is 66.1 ± 19.

What about the relative cell number ([4]; 10 nM) of the same molecule?
Its relative cell number is 96.1 ± 6.7.

And the relative cell number ([4]; 100 nM)?
Its relative cell number is 48.9 ± 20.

And the relative cell number ([4]; 1000 nM)?
Its relative cell number is 93.1 ± 34.

What about the relative cell number ([4]; 10000 nM) of the same molecule?
Its relative cell number is 49.1 ± 5.4.

And the relative cell number ([5]; 10 nM)?
The relative cell number was 88.8 ± 3.

And the relative cell number ([5]; 100 nM)?
The relative cell number was 52.6 ± 23.

What about the relative cell number ([5]; 1000 nM) of the same molecule?
The relative cell number was 60.8 ± 12.

And the relative cell number ([5]; 10000 nM)?
The relative cell number was 30.5 ± 1.7.

`O=C(CCc1ccc(O)cc1)c1c(O)cc(O)cc1O` [Phloretin] was tested. Which relative cell number ([1]; 10 nM) did it give?
The relative cell number was 104 ± 10.

What about the relative cell number ([1]; 100 nM) of the same molecule?
Its relative cell number is 105 ± 7.

What about the relative cell number ([1]; 1000 nM) of the same molecule?
The relative cell number was 101 ± 13.

What about the relative cell number ([1]; 10000 nM) of the same molecule?
Its relative cell number is 113 ± 11.

And the relative cell number ([2]; 10 nM)?
The relative cell number was 102 ± 36.

What about the relative cell number ([2]; 100 nM) of the same molecule?
The relative cell number was 105 ± 16.

What about the relative cell number ([2]; 1000 nM) of the same molecule?
Its relative cell number is 96.7 ± 8.2.

And the relative cell number ([2]; 10000 nM)?
Its relative cell number is 107 ± 15.

And the relative cell number ([3]; 10 nM)?
Its relative cell number is 83.2 ± 2.8.

And the relative cell number ([3]; 100 nM)?
The relative cell number was 103 ± 20.

And the relative cell number ([3]; 1000 nM)?
The relative cell number was 127 ± 16.

And the relative cell number ([3]; 10000 nM)?
The relative cell number was 106.6 ± 0.71.

What about the relative cell number ([4]; 10 nM) of the same molecule?
Its relative cell number is 76.3 ± 4.5.

What about the relative cell number ([4]; 100 nM) of the same molecule?
The relative cell number was 76.5 ± 1.

What about the relative cell number ([4]; 1000 nM) of the same molecule?
Its relative cell number is 100 ± 1.3.

What about the relative cell number ([4]; 10000 nM) of the same molecule?
The relative cell number was 90.5 ± 3.9.

And the relative cell number ([5]; 10 nM)?
Its relative cell number is 91.1 ± 42.

And the relative cell number ([5]; 100 nM)?
Its relative cell number is 100 ± 55.

And the relative cell number ([5]; 1000 nM)?
The relative cell number was 74 ± 11.

And the relative cell number ([5]; 10000 nM)?
The relative cell number was 112 ± 13.

For `Cc1ccc(C(=O)Cn2c3c(sc2=N)CCCC3)cc1` [PifithrinAlpha], which relative cell number ([1]; 10 nM) is on record?
Its relative cell number is 91.7 ± 2.4.

And the relative cell number ([1]; 100 nM)?
Its relative cell number is 91.4 ± 4.6.

And the relative cell number ([1]; 1000 nM)?
The relative cell number was 83.2 ± 14.

What about the relative cell number ([1]; 10000 nM) of the same molecule?
The relative cell number was 90.2 ± 8.3.

And the relative cell number ([2]; 10 nM)?
Its relative cell number is 135 ± 2.2.

What about the relative cell number ([2]; 100 nM) of the same molecule?
The relative cell number was 95.61 ± 0.61.

And the relative cell number ([2]; 1000 nM)?
Its relative cell number is 103 ± 1.8.

And the relative cell number ([2]; 10000 nM)?
Its relative cell number is 77.5 ± 1.6.

And the relative cell number ([3]; 10 nM)?
Its relative cell number is 114 ± 41.

What about the relative cell number ([3]; 100 nM) of the same molecule?
Its relative cell number is 85.3 ± 57.

And the relative cell number ([3]; 1000 nM)?
The relative cell number was 94.3 ± 30.

And the relative cell number ([3]; 10000 nM)?
The relative cell number was 57.2 ± 3.8.

And the relative cell number ([4]; 10 nM)?
Its relative cell number is 133 ± 10.

And the relative cell number ([4]; 100 nM)?
The relative cell number was 84.2 ± 16.

What about the relative cell number ([4]; 1000 nM) of the same molecule?
Its relative cell number is 85.6 ± 2.5.

What about the relative cell number ([4]; 10000 nM) of the same molecule?
Its relative cell number is 67.1 ± 6.8.

And the relative cell number ([5]; 10 nM)?
The relative cell number was 121 ± 13.

What about the relative cell number ([5]; 100 nM) of the same molecule?
Its relative cell number is 90.9 ± 20.

And the relative cell number ([5]; 1000 nM)?
Its relative cell number is 61.5 ± 23.

What about the relative cell number ([5]; 10000 nM) of the same molecule?
The relative cell number was 37.7 ± 11.

How did the relative cell number ([1]; 10 nM) turn out when `c1ccc2c(Oc3nc(Nc4ccc(N5CCOCC5)cc4)c4ncn(C5CCCCC5)c4n3)cccc2c1` [Purmorphamine] was run?
The relative cell number was 99.2 ± 3.6.

What about the relative cell number ([1]; 100 nM) of the same molecule?
The relative cell number was 95.6 ± 7.1.

What about the relative cell number ([1]; 1000 nM) of the same molecule?
Its relative cell number is 90.2 ± 1.9.

And the relative cell number ([1]; 10000 nM)?
Its relative cell number is 71.8 ± 6.4.

What about the relative cell number ([2]; 10 nM) of the same molecule?
Its relative cell number is 84.2 ± 13.

What about the relative cell number ([2]; 100 nM) of the same molecule?
Its relative cell number is 99.65 ± 0.55.

What about the relative cell number ([2]; 1000 nM) of the same molecule?
The relative cell number was 85.43 ± 0.29.

What about the relative cell number ([2]; 10000 nM) of the same molecule?
Its relative cell number is 79.3 ± 11.

What about the relative cell number ([3]; 10 nM) of the same molecule?
The relative cell number was 95.7 ± 9.6.

What about the relative cell number ([3]; 100 nM) of the same molecule?
The relative cell number was 75.6 ± 12.

And the relative cell number ([3]; 1000 nM)?
Its relative cell number is 97 ± 66.

What about the relative cell number ([3]; 10000 nM) of the same molecule?
The relative cell number was 52 ± 8.8.

What about the relative cell number ([4]; 10 nM) of the same molecule?
Its relative cell number is 96.9 ± 34.

And the relative cell number ([4]; 100 nM)?
The relative cell number was 124 ± 43.

And the relative cell number ([4]; 1000 nM)?
The relative cell number was 75.9 ± 29.

And the relative cell number ([4]; 10000 nM)?
Its relative cell number is 51.1 ± 11.

And the relative cell number ([5]; 10 nM)?
Its relative cell number is 97.6 ± 49.

And the relative cell number ([5]; 100 nM)?
Its relative cell number is 84.6 ± 39.

What about the relative cell number ([5]; 1000 nM) of the same molecule?
Its relative cell number is 92.7 ± 11.

And the relative cell number ([5]; 10000 nM)?
The relative cell number was 52.3 ± 1.9.

What does the source list for `O=C(O)C(Cc1c[nH]c2ccccc12)N1C(=O)c2ccccc2C1=O` (stereo not given) [RG108]?
relative cell number ([1]; 10 nM): 87.6 ± 8; relative cell number ([1]; 100 nM): 88.2 ± 2.6; relative cell number ([1]; 1000 nM): 83.03 ± 0.26; relative cell number ([1]; 10000 nM): 97.2 ± 1.7; relative cell number ([2]; 10 nM): 82.3 ± 16; relative cell number ([2]; 100 nM): 70.3 ± 4.6; relative cell number ([2]; 1000 nM): 102 ± 4.9; relative cell number ([2]; 10000 nM): 102 ± 14; relative cell number ([3]; 10 nM): 96.8 ± 28; relative cell number ([3]; 100 nM): 96.5 ± 4; relative cell number ([3]; 1000 nM): 80.5 ± 17; relative cell number ([3]; 10000 nM): 79.7 ± 30; relative cell number ([4]; 10 nM): 97.1 ± 11; relative cell number ([4]; 100 nM): 64.7 ± 21; relative cell number ([4]; 1000 nM): 81 ± 16; relative cell number ([4]; 10000 nM): 73.2 ± 5.8; relative cell number ([5]; 10 nM): 94.8 ± 3.9; relative cell number ([5]; 100 nM): 76.2 ± 6.3; relative cell number ([5]; 1000 nM): 98.5 ± 2.5; relative cell number ([5]; 10000 nM): 71.4 ± 41

With `CNC(=O)c1cc(Oc2ccc(NC(=O)Nc3ccc(Cl)c(C(F)(F)F)c3)c(F)c2)ccn1` [Regorafenib] as the molecule, how does the relative cell number ([1]; 10 nM) read?
The relative cell number was 105.7 ± 0.71.

What about the relative cell number ([1]; 100 nM) of the same molecule?
The relative cell number was 113 ± 7.7.

And the relative cell number ([1]; 1000 nM)?
The relative cell number was 110 ± 2.3.

What about the relative cell number ([1]; 10000 nM) of the same molecule?
The relative cell number was 61.9 ± 11.

What about the relative cell number ([2]; 10 nM) of the same molecule?
Its relative cell number is 94.2 ± 7.3.

And the relative cell number ([2]; 100 nM)?
The relative cell number was 94.9 ± 19.

What about the relative cell number ([2]; 1000 nM) of the same molecule?
The relative cell number was 116 ± 46.

And the relative cell number ([2]; 10000 nM)?
The relative cell number was 42.7 ± 9.8.

And the relative cell number ([3]; 10 nM)?
The relative cell number was 102 ± 13.

And the relative cell number ([3]; 100 nM)?
Its relative cell number is 114.3 ± 0.95.

And the relative cell number ([3]; 1000 nM)?
Its relative cell number is 94.3 ± 26.

And the relative cell number ([3]; 10000 nM)?
Its relative cell number is 32.7 ± 7.6.

What about the relative cell number ([4]; 10 nM) of the same molecule?
The relative cell number was 84.4 ± 8.2.

What about the relative cell number ([4]; 100 nM) of the same molecule?
The relative cell number was 98.8 ± 11.

What about the relative cell number ([4]; 1000 nM) of the same molecule?
Its relative cell number is 101 ± 16.

What about the relative cell number ([4]; 10000 nM) of the same molecule?
The relative cell number was 38.2 ± 5.

And the relative cell number ([5]; 10 nM)?
Its relative cell number is 81.3 ± 52.

What about the relative cell number ([5]; 100 nM) of the same molecule?
Its relative cell number is 68.8 ± 21.

What about the relative cell number ([5]; 1000 nM) of the same molecule?
The relative cell number was 98.2 ± 40.

And the relative cell number ([5]; 10000 nM)?
Its relative cell number is 22.1 ± 1.5.
